According to patent US7579373B2, “Targeted bisplatinum polyamines as pro-drugs: selective release of platinum” (Virginia Commonwealth University, priority 2002, dated 2009):
Where two headings read alike, the source gives them in different places.

Legend:
L1210/0 [1] = experiment: Growth inhibition in L1210/0 cells; assay type: cell-based, murine; settings: 2 hours of exposure; mean (±SE), 3 experiments of 2 determinations
Excerpt: To examine the pro-drug potential in a biological setting, a comparison of the pharmacological properties of the blocked polyamine compounds in L1210 murine leukemia cells was undertaken.

L1210/DDP [2] = experiment: Growth inhibition in L1210/DDP cells; assay type: cell-based, murine; settings: for IC50: 2 hours of exposure, mean (±SE), 3 experiments of 2 determinations; for RF, resistance factor: IC50 L1210/DDP / IC50 L1210/0, 2 hours of exposure
L1210/0 [3] = experiment: Cellular accumulation in L1210/0 cells; assay type: cell-based, murine; settings: 2 hours of exposure; (±SE), 3 experiments of 2 determinations
Protocol: (§1) Cellular accumulation. The cellular accumulation assays followed published procedures (7). Briefly, cells were resuspended at 10^7/mL in media supplemented with […]. Platinum complexes were added, and samples were incubated at 37° C. in 5% CO2. At 0 and 2 hours aliquots were removed for determination of cell concentrations and for measurement of platinum content. For the latter, aliquots were washed three times in cold phosphate buffered saline, resuspended in 1% Triton-X in water, and sonicated. Platinum content was measured by flameless atomic absorption spectroscopy.
(§2) The cellular accumulation of the blocked Pt compound 2 was also investigated. […] Based solely on charge considerations the BOC-spermidine with a charge of 2+ should have cellular uptake similar to 1,1/t,t (n=6). The enhanced uptake could be explained by some hydrolysis in media or plasma producing small amounts of the protonated 1,1/t,t-spermidine. Considering the potency of polynuclear-polyamine compounds, a small percentage of hydrolysis could have a significant impact on in vivo activity.

L1210/DDP [4] = experiment: Cellular accumulation in L1210/DDP cells; assay type: cell-based, murine; settings: 2 hours of exposure; (±SE), 3 experiments of 2 determinations
Protocol: as §1, §2

[5] = assay type: physicochemical; settings: for Rate constant for the deprotection: first order; for % 1 (percentage of 1 of the overall integration in the chromatogram after incubation): uncorrected
Protocol: Analyses of the products and hydrolysis studies were carried out on an analytical Beckman System Gold Nouveau HPLC instrument with UV detection at 215 nm. A Lichrosphere RP-8 column (5 μm particle size, dimensions 250 mm×4 mm) was used with a solvent gradient from water/methanol 97:3 (0.05 M NaClO4, 1% NaCl) to water/methanol 70:30 (0.05 M NaClO4, 2% NaCl).
Hydrolysis Study. For the hydrolysis experiments 10^−3 mMol complex were dissolved in 1 mL of nanopure water. The pH of the solutions was adjusted by addition of HNO3 (0.1 M, 0.01 M) and NaOH (0.1 M, 0.01 M), respectively. The samples were incubated in a water bath at 37° C. and aliquots of 20 μL were taken from the bulk solution for HPLC analysis. The pH values of the samples were controlled in regular intervals and readjusted if necessary.
The hydrolysis of the protective groups of compounds 2-4 was monitored at 37° C. at various pH values. […] In addition, the chromatogram of 2 contained a peak of a minor impurity (ca 0.4%) which remained unchanged during the timecourse of the reaction. Deprotection of the secondary amino function leads to the appearance of a signal for the unprotected spermidine complex 1 that, as a consequence of the increased cationic charge, is well separated from the signal of the N4 blocked precursor. The area percentage of the integrated signal of the unprotected species is taken as an estimate for the amount of hydrolysis at a given timepoint. To allow for a more accurate quantitative comparison of results, the extinction coefficients for compounds 1-4 were determined at 215 nm (Table 1). The integral values of the blocked compounds have been corrected for the higher absorbance of these species at the observed wavelength compared to the unprotected species 1. Table 2 provides a summary of the amount of hydrolysis for all samples before and after the correction. Rate constants were calculated based on the corrected integral values.
The hydrolysis of the blocking groups of on the N4 position of compounds 5-7 was monitored at 37° C. over a pH range of 6-8.
The amount of 1,1/t,t-spermidine released over time is depicted in FIG. 8. No other products were detected, trifluoroacetate, originating from the hydrolysis reaction, is not retained on the column under the present conditions and coelutes with the other anions (Cl^− from 5, NO3^− from pH adjustment). In order to obtain rate constants for the conversion of 7 to 1,1/t,t-spermidine, the integral values of the chromatograms were corrected for the different absorption of the species at the observed wavelength (ε215: 1, 3.64·10^3; 5, 7.62·10^3; 6, 10.4·10^3; 7, 9.46·10^3 L.Mol^−1 .cm^−1). Concentrations were calculated based on the assumption that the sum of the concentrations of both species at every time point equals the original concentration of 7 at the start of the experiment. First order rate constants were obtained using the program MicroMath Scientist Version 2.01. The results are summarized in Table 3 and compared with values obtained for BOC and Fmoc protected spermidine complexes.

A2780 = experiment: SRB growth inhibition assay, A2780; assay type: cell-based, human; settings: 96 h exposure
Protocol: (§3) Cell culture. A2780, A2780/CDDP, CH1, CH1/CDDP, 41M and 41M/CDDP cell lines were used in this study and maintained according to published procedures. (8,9).
(§4) Growth inhibition assay. The Sulforhodamine B (SRB) assay was used to determine growth inhibition potency of platinum drugs (10). The cells were seeded in 96-well microtitre plates at 3-8×10^3 cells/well in 160 μL growth medium and allowed to attach overnight. Platinum agents were then added after serial dilution in quadruplicate wells and exposed to cells for 2 or 96 hours. After the 2 hours drug incubations were complete, plates were washed free of drug with phosphate-buffered saline (PBS) and then refed with normal growth medium for a further 94 hours. Quantitation of cell growth in treated and control wells was then assessed using 0.4% SRB dissolved in 1% acetic acid. IC50 values were determined graphically.
(§5) Of special interest is the remarkably low value for 4 (Fmoc) in A2780 cells.

A2780/CDDP = experiment: SRB growth inhibition assay, A2780/CDDP; assay type: cell-based, human; settings: for IC50: 96 h exposure; for RF A2780/CDDP: IC50 resistant/IC50 parent line, 96 h
Protocol: as §3
as §4, with “graphically. […]” for “graphically.”

CH1 = experiment: SRB growth inhibition assay, CH1; assay type: cell-based, human; settings: 96 h exposure
Protocol: as §3, §4, §5

CH1/CDDP = experiment: SRB growth inhibition assay, CH1/CDDP; assay type: cell-based, human; settings: for IC50: 96 h exposure; for RF CH1/CDDP: IC50 resistant/IC50 parent line, 96 h
Protocol: as §3
as §4, with “graphically. […]” for “graphically.”

41M = experiment: SRB growth inhibition assay, 41M; assay type: cell-based, human; settings: 96 h exposure
Protocol: as §3, §4, §5

41M/CDDP = experiment: SRB growth inhibition assay, 41M/CDDP; assay type: cell-based, human; settings: for IC50: 96 h exposure, read-out: 96H IC50 CH1/CDDP; for RF CH1/CDDP: IC50 resistant/IC50 parent line, 96 h
Protocol: as §3, §4, §5

[6] = pH 5, 37° C., time 42 d (2), 30 d (3), 41 d (4)
[7] = pH 6, 37° C., time 42 d (2), 42 d (3), 41 d (4)
[8] = pH 7, 37° C., time 25 d (2), 41 d (4)

| Compound | IC50 (L1210/0 [1]) [µM] | IC50 (L1210/DDP [2]) [µM] | RF, resistance factor (L1210/DDP [2]) | Accumulation L1210/0 (L1210/0 [3]) | Accumulation L1210/DDP (L1210/DDP [4]) | Rate constant for the deprotection ([5]; pH 6, 37° C.) | Rate constant for the deprotection ([5]; pH 7, 37° C.) | IC50 (A2780) [µM] | IC50 (A2780/CDDP) [µM] | RF A2780/CDDP (A2780/CDDP) | IC50 (CH1) [µM] | IC50 (CH1/CDDP) [µM] | RF CH1/CDDP (CH1/CDDP) | IC50 (41M) [µM] | % 1, corrected for the different extinction coefficients at 215 nm [5, 6] | % 1, corrected for the different extinction coefficients at 215 nm [5, 7] | also measured |
| --- | --- | --- | --- | --- | --- | --- | --- | --- | --- | --- | --- | --- | --- | --- | --- | --- | --- |
| N.N.N.N.NCCCCCCN.[Cl][Pt+].[Cl][Pt+] [1,1/tt, [trans-{PtCl(NH3)2}2H2N(CH2)6NH2]^2+, reference compound] | 3.7 | 16 | 4.3 | 3.8 (0.70) attamol Pt complex/cell | 0.67 (0.21) attamol Pt complex/cell |  |  |  |  |  |  |  |  |  |  |  |  |
| N.N.N.N.NCCCCN(CCCN)C(=O)C(F)(F)F.[Cl-].[Cl-].[Cl][Pt+].[Cl][Pt+] [Compound 7, [{trans-Pt(NH3)2Cl}2-μ-N^4—CF3CO-spermidine-N^1,N^8]Cl2] |  |  |  |  |  | 4.44 (±0.11) · 10^−8 s^−1 | 2.73 (±0.06) · 10^−7 s^−1 | 6.8 | 46 | 6.8 | 2.4 | 5 | 2.1 | 3.7 |  |  | Rate constant for the deprotection ([5]; pH 8, 37° C.): 1.79 (±0.03) · 10^−6 s^−1; IC50 (41M/CDDP): 19 µM; RF CH1/CDDP (41M/CDDP): 5.1 |
| N.N.N.N.NCCCCN(CCCN)C(=O)OCC1c2ccccc2-c2ccccc21.[Cl-].[Cl-].[Cl][Pt+].[Cl][Pt+] [Compound 4, [{trans-Pt(NH3)2Cl}2——N^4-Fmoc-spermidine-N^1,N^8]Cl2] |  |  |  |  |  | 9.74 (±0.88) · 10^−9 s^−1 | 6.12 (±0.09) · 10^−8 s^−1 | 0.84 | 65 | 77 | 46 | 62 | 1.3 | > 100 | [1.0] % | [3.0] % | Rate constant for the deprotection ([5]; pH 5, 37° C.): 3.99 (±0.96) · 10^−9 s^−1; % 1 (percentage of 1 of the overall integration in the chromatogram after incubation) [5, 6]: 0.14%; hydrolyzed species observed (HPLC profile) ([5]; pH 5 and 6, 37° C.): only minor amounts; % 1 (percentage of 1 of the overall integration in the chromatogram after incubation) [5, 7]: 0.45%; % 1, corrected for the different extinction coefficients at 215 nm [5, 8]: [19.6] %; % 1 (percentage of 1 of the overall integration in the chromatogram after incubation) [5, 8]: 3.4%; free spermidine complex released (HPLC profile) ([5]; pH 7 and 8, 37° C.): considerable amounts; % 1, corrected for the different extinction coefficients at 215 nm ([5]; pH 8, 37° C., time 30 d (4)): [35.2] %; Rate constant for the deprotection ([5]; pH 8, 37° C.): 1.44 (±0.07) · 10^−7 s^−1; % 1 (percentage of 1 of the overall integration in the chromatogram after incubation) ([5]; pH 8, 37° C., time 30 d (4)): 7.3% |
| CC(C)(C)OC(=O)N(CCCN)CCCCN.N.N.N.N.[Cl-].[Cl-].[Cl][Pt+].[Cl][Pt+] [Compound 2, [{trans-Pt(NH3)2Cl}2——N^4-BOC-spermidine-N^1,N^8]Cl2] | 1.25 | 4.6 | 3.7 | 5.0 (0.63) attamol Pt complex/cell | 4.8 (0.75) attamol Pt complex/cell | 4.29 (±0.05) · 10^−8 s^−1 | 3.12 (±0.04) · 10^−8 s^−1 | 2.1 | 19 | 9.0 | 8 | 11 | 1.4 | 17 | [15.1] % | [13.8] % | Rate constant for the deprotection ([5]; pH 5, 37° C.): 4.65 (±0.04) · 10^−8 s^−1; Rate constant for the deprotection ([5]; pH 6.6, 37° C.): 3.51 (±0.05) · 10^−8 s^−1; % 1, corrected for the different extinction coefficients at 215 nm [5, 8]: [6.6] % |
| N.N.[Cl][Pt][Cl] [cisplatin, reference compound] | 1.3 | 59 | 44 | 5.0 (0.89) attamol Pt complex/cell | 1.5 (0.76^ attamol Pt complex/cell |  |  | 1.6 | 12 | 7.5 | 0.34 | 1.1 | 3.2 | 2.3 |  |  |  |
| CC(=O)N(CCCN)CCCCN.N.N.N.N.[Cl-].[Cl-].[Cl][Pt+].[Cl][Pt+] [Compound 5, [{trans-Pt(NH3)2Cl}2-μ-N^4—CH3CO-spermidine-N^1,N^8]Cl2] |  |  |  |  |  |  |  | 14 | 54 | 3.9 | 7.4 | 12.5 | 1.7 | 17.5 |  |  | IC50 (41M/CDDP): 24 µM; RF CH1/CDDP (41M/CDDP): 1.4 |
| N.N.N.N.NCCCCN(CCCN)C(=O)OCc1ccccc1.[Cl-].[Cl-].[Cl][Pt+].[Cl][Pt+] [Compound 3, [{trans-Pt(NH3)2Cl}2— —N^4-CBz-spermidine-N^1,N^8]Cl2] |  |  |  |  |  |  |  | 24 | 100 | 4.2 | 25 | 43 | 1.7 | > 100 | [0.13] % | [0.12] % | % 1 (percentage of 1 of the overall integration in the chromatogram after incubation) [5, 6]: 0.05%; amount of 1 detected in the samples ([5]; pH 5 and 6, 37° C., over the complete timecourse): below 0.1%; % 1 (percentage of 1 of the overall integration in the chromatogram after incubation) [5, 7]: 0.05% |
